Where a name gives a salt, the structure may show the parent alone.
How the values were obtained:
[1] = biological target: mouse PKA catalytic subunits (Mus musculus, UniProt P05132); test: PKA inhibition, ADP-Glo Kinase Assay
[2] = biological target: T1, bovine GRK2 (S670A) (Bos taurus, UniProt P21146, S670A); test: GRK2 kinase inhibition
T1 sequence (P21146 1-689 S670A): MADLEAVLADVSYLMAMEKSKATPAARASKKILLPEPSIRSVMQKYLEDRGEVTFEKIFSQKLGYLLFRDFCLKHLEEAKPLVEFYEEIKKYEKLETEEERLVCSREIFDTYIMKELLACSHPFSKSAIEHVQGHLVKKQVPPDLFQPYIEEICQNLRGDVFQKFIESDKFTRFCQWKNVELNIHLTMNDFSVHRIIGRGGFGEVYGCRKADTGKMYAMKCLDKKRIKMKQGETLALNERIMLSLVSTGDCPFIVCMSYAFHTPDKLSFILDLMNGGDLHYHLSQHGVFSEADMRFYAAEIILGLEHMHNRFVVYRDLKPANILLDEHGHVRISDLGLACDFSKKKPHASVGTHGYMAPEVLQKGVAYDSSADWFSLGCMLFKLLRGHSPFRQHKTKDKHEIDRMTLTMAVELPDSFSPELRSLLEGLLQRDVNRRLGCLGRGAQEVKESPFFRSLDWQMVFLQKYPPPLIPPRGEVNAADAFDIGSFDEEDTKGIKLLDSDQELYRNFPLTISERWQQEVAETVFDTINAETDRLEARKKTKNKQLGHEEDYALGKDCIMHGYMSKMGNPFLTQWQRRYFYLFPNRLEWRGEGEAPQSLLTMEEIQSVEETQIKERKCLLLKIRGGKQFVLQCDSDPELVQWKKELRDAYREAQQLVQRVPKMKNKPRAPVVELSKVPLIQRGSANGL

[3] = biological target: bovine GRK5 (Bos taurus, UniProt P43249); test: GRK5 kinase inhibition
Sequence of bovine GRK5 (P43249 whole entry): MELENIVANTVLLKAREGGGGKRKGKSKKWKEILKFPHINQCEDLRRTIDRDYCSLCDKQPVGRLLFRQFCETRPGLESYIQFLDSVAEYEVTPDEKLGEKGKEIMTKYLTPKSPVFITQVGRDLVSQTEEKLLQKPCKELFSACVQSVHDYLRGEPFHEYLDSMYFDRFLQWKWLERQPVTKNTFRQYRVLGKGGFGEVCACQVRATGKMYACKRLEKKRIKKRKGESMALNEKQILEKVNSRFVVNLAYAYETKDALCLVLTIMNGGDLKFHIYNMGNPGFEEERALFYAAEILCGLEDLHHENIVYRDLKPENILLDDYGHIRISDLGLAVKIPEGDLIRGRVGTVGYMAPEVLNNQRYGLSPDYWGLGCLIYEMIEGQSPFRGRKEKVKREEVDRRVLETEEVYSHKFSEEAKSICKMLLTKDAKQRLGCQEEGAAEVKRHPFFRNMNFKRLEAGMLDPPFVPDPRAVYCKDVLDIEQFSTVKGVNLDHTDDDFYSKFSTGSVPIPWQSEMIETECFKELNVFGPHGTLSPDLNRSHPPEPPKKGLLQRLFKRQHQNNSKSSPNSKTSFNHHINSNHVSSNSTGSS

[4] = test system: mouse cardiomyocytes; assay type: cell-based
[5] = Abbreviated pharmacokinetic study in mice after IP administration
[6] = Metabolic stability in mouse liver microsomes; assay type: in vitro ADME; conditions: polar carboxamides on the paroxetine template
[7] = female, CD-1, mouse, plasma, ip, 10 mg/kg

Row | SMILES | IC50 [1] [µM] | further results
1 | O=C(NCc1ccncc1)c1cc([C@@H]2CCNC[C@H]2COc2ccc3c(c2)OCO3)ccc1F [14am, 5-((3S,4R)-3-((benzo[d][1,3]dioxol-5-yloxy)methyl)piperidin-4-yl)-2-fluoro-N-(pyridin-4-ylmethyl)benzamide] | > 100 | 
2 | O=C(NCc1ncc[nH]1)c1cc([C@@H]2CCNC[C@H]2COc2ccc3c(c2)OCO3)ccc1F [14aq, N-((1H-imidazol-2-yl)methyl)-5-((3S,4R)-3-((benzo[d][1,3]dioxol-5-yloxy)methyl)piperidin-4-yl)-2-fluorobenzamide] | > 100 | 
3 | O=C(NCCc1ccccc1)c1cc([C@@H]2CCNC[C@H]2COc2ccc3c(c2)OCO3)ccc1F [14ac, 5-((3S,4R)-3-((benzo[d][1,3]dioxol-5-yloxy)methyl)piperidin-4-yl)-2-fluoro-N-phenethylbenzamide] | > 100 | 
4 | O=C(NCCc1cc[nH]n1)c1cc([C@@H]2CCNC[C@H]2COc2ccc3c(c2)OCO3)ccc1F [14at, N-(2-(1H-pyrazol-3-yl)ethyl)-5-((3S,4R)-3-((benzo[d][1,3]dioxol-5-yloxy)methyl)piperidin-4-yl)-2-fluorobenzamide] | > 100 | decrease in GRK2 potency relative to 14as [2]: 26 fold
5 | O=C(NCCc1c(F)cccc1F)c1cc([C@@H]2CCNC[C@H]2COc2ccc3c(c2)OCO3)ccc1F [14ae, 5-((3S,4R)-3-((benzo[d][1,3]dioxol-5-yloxy)methyl)piperidin-4-yl)-N-(2,6-difluorophenethyl)-2-fluorobenzamide] | > 100 | 
6 | Fc1ccc([C@@H]2CCNC[C@H]2COc2ccc3c(c2)OCO3)cc1 [Paroxetine, paroxetine, reference compound] | > 100 | 
7 | CNC(=O)c1cc([C@@H]2CCNC[C@H]2COc2ccc3c(c2)OCO3)ccc1F [14aa, 5-((3S,4R)-3-((benzo[d][1,3]dioxol-5-yloxy)methyl)piperidin-4-yl)-2-fluoro-N-methylbenzamide] | > 100 | 
8 | O=C(Cc1cc([C@@H]2CCNC[C@H]2COc2ccc3c(c2)OCO3)ccc1F)NCCc1cn[nH]c1 [14bd, N-(2-(1H-pyrazol-4-yl)ethyl)-2-(5-((3S,4R)-3-((benzo[d][1,3]dioxol-5-yloxy)methyl)piperidin-4-yl)-2-fluorophenyl)acetamide] | > 100 | increase in GRK2 potency relative to paroxetine [2]: 2 fold
9 | COc1cccc(OC)c1CNC(=O)c1cc([C@@H]2CCNC[C@H]2COc2ccc3c(c2)OCO3)ccc1F [14ai, 5-((3S,4R)-3-((benzo[d][1,3]dioxol-5-yloxy)methyl)piperidin-4-yl)-N-(2,6-dimethoxybenzyl)-2-fluorobenzamide hydrochloride] | > 100 | 
10 | COc1ccccc1CNC(=O)c1cc([C@@H]2CCNC[C@H]2COc2ccc3c(c2)OCO3)ccc1F [14aj, 5-((3S,4R)-3-((benzo[d][1,3]dioxol-5-yloxy)methyl)piperidin-4-yl)-2-fluoro-N-(2-methoxybenzyl)benzamide hydrochloride] | > 100 | 
11 | O=C(Cc1cc([C@@H]2CCNC[C@H]2COc2ccc3c(c2)OCO3)ccc1F)NCCc1ccccn1 [14bc, 2-(5-((3S,4R)-3-((benzo[d][1,3]dioxol-5-yloxy)methyl)piperidin-4-yl)-2-fluorophenyl)-N-(2-(pyridin-2-yl)ethyl)acetamide hydrochloride] | > 100 | 
12 | Cc1cccc(C)c1CNC(=O)c1cc([C@@H]2CCNC[C@H]2COc2ccc3c(c2)OCO3)ccc1F [14ag, 5-((3S,4R)-3-((benzo[d][1,3]dioxol-5-yloxy)methyl)piperidin-4-yl)-N-(2,6-dimethylbenzyl)-2-fluorobenzamide hydrochloride] | > 100 | 
13 | O=C(NCc1c(F)cccc1F)c1cc([C@@H]2CCNC[C@H]2COc2ccc3c(c2)OCO3)ccc1F [14ad, 5-((3S,4R)-3-((benzo[d][1,3]dioxol-5-yloxy)methyl)piperidin-4-yl)-N-(2,6-difluorobenzyl)-2-fluorobenzamide hydrochloride] | > 100 | 
14 | O=C(NCCc1ccccn1)c1cc([C@@H]2CCNC[C@H]2COc2ccc3c(c2)OCO3)ccc1F [14an, 5-((3S,4R)-3-((benzo[d][1,3]dioxol-5-yloxy)methyl)piperidin-4-yl)-2-fluoro-N-(2-(pyridin-2-yl)ethyl)benzamide] | > 100 | 
15 | O=C(NCc1cccnc1)c1cc([C@@H]2CCNC[C@H]2COc2ccc3c(c2)OCO3)ccc1F [14al, 5-((3S,4R)-3-((benzo[d][1,3]dioxol-5-yloxy)methyl)piperidin-4-yl)-2-fluoro-N-(pyridin-3-ylmethyl)benzamide] | > 100 | 
16 | O=C(NCCc1ccncc1)c1cc([C@@H]2CCNC[C@H]2COc2ccc3c(c2)OCO3)ccc1F [14ap, 5-((3S,4R)-3-((benzo[d][1,3]dioxol-5-yloxy)methyl)piperidin-4-yl)-2-fluoro-N-(2-(pyridin-4-yl)ethyl)benzamide] | > 100 | 
17 | O=C(NCc1ccccc1C(F)(F)F)c1cc([C@@H]2CCNC[C@H]2COc2ccc3c(c2)OCO3)ccc1F [14af, 5-((3S,4R)-3-((benzo[d][1,3]dioxol-5-yloxy)methyl)piperidin-4-yl)-2-fluoro-N-(2-(trifluoromethyl)benzyl)benzamide] | > 100 | 
18 | O=C(NCCc1cccnc1)c1cc([C@@H]2CCNC[C@H]2COc2ccc3c(c2)OCO3)ccc1F [14ao, 5-((3S,4R)-3-((benzo[d][1,3]dioxol-5-yloxy)methyl)piperidin-4-yl)-2-fluoro-N-(2-(pyridin-3-yl)ethyl)benzamide] | > 100 | 
19 | O=C(NCc1cn[nH]c1)c1cc([C@@H]2CCNC[C@H]2COc2ccc3c(c2)OCO3)ccc1F [14ax, N-((1H-pyrazol-4-yl)methyl)-5-((3S,4R)-3-((benzo[d][1,3]dioxol-5-yloxy)methyl)piperidin-4-yl)-2-fluorobenzamide] | > 100 | decrease in GRK2 potency relative to 14as [2]: 10 fold
20 | Cc1cc(CNC(=O)c2cc([C@@H]3CCNC[C@H]3COc3ccc4c(c3)OCO4)ccc2F)n[nH]1 [14au, 5-((3S,4R)-3-((benzo[d][1,3]dioxol-5-yloxy)methyl)piperidin-4-yl)-2-fluoro-N-((5-methyl-1H-pyrazol-3-yl)methyl)benzamide] | > 100 | selectivity for GRK2 over GRK5 [3]: > 100 fold
21 | O=C(NCc1ccn[nH]1)c1cc([C@@H]2CCNC[C@H]2COc2ccc3c(c2)OCO3)ccc1F [14as, N-((1H-pyrazol-5-yl)methyl)-5-((3S,4R)-3-((benzo[d][1,3]dioxol-5-yloxy)methyl)piperidin-4-yl)-2-fluorobenzamide] | > 100 | improvement in contractility efficacy over compound 4 [4]: 5 fold; concentration giving improved contractility ([4]; isoproterenol-stimulated): 100 nM; concentration at 30 min [5, 7]: 2710 nM; concentration at 2 h [5, 7]: 1440 nM; concentration at 4 h [5, 7]: 270 nM; concentration at 7 h [5, 7]: 43 nM; time with plasma concentration higher than GRK2 IC50 ([…] nM) ([5]; mice, single IP administration 10 mg/kg): over seven; metabolic stability in MLM, in words [6]: substantial metabolic instability
22 | O=C(NCc1c(Cl)cccc1Cl)c1cc([C@@H]2CCNC[C@H]2COc2ccc3c(c2)OCO3)ccc1F [14ah, 5-((3S,4R)-3-((benzo[d][1,3]dioxol-5-yloxy)methyl)piperidin-4-yl)-N-(2,6-dichlorobenzyl)-2-fluorobenzamide] | > 100 | 
23 | O=C(NCCc1cn[nH]c1)c1cc([C@@H]2CCNC[C@H]2COc2ccc3c(c2)OCO3)ccc1F [14ay, N-(2-(1H-pyrazol-4-yl)ethyl)-5-((3S,4R)-3-((benzo[d][1,3]dioxol-5-yloxy)methyl)piperidin-4-yl)-2-fluorobenzamide hydrochloride] | > 100 | 
24 | Cn1ccc(CNC(=O)c2cc([C@@H]3CCNC[C@H]3COc3ccc4c(c3)OCO4)ccc2F)n1 [14av, 5-((3S,4R)-3-((benzo[d][1,3]dioxol-5-yloxy)methyl)piperidin-4-yl)-2-fluoro-N-((1-methyl-1H-pyrazol-3-yl)methyl)benzamide] | > 100 | decrease in GRK2 potency relative to 14as [2]: 40 fold
25 | Cn1nccc1CNC(=O)c1cc([C@@H]2CCNC[C@H]2COc2ccc3c(c2)OCO3)ccc1F [14aw, 5-((3S,4R)-3-((benzo[d][1,3]dioxol-5-yloxy)methyl)piperidin-4-yl)-2-fluoro-N-((1-methyl-1H-pyrazol-5-yl)methyl)benzamide] | > 100 | decrease in GRK2 potency relative to 14as [2]: 70 fold
26 | O=C(NCCc1c[nH]cn1)c1cc([C@@H]2CCNC[C@H]2COc2ccc3c(c2)OCO3)ccc1F [14ar, N-(2-(1H-imidazol-4-yl)ethyl)-5-((3S,4R)-3-((benzo[d][1,3]dioxol-5-yloxy)methyl)piperidin-4-yl)-2-fluorobenzamide] | > 100 | 
27 | O=C(NCc1ccccc1)c1cc([C@@H]2CCNC[C@H]2COc2ccc3c(c2)OCO3)ccc1F [14ab, 5-((3S,4R)-3-((benzo[d][1,3]dioxol-5-yloxy)methyl)piperidin-4-yl)-N-benzyl-2-fluorobenzamide] | > 100 | 

Source: publication PMC5641445 (Journal of medicinal chemistry, 2017)
